Laboratory results reported in patent publication US20100216779A1 (GLAXOSMITHKLINE LLC, priority 2007, published 2010).

System: various cell lines of different tumor origins
Experiment: Inhibition of cell proliferation, InCell Analyzer assay
Format: cell-based
Conditions: Homo sapiens
Description: C. Inhibition of Cell Proliferation
For InCell Analyser assay, various cell lines of different tumor origins were grown to 70-80% confluency in appropriate culture media containing 10% fetal bovine serum at 37° C. in a 5% CO2 incubator. On day-1, cells were seeded at 2 densities in 384-well plates and incubated at 37° C. overnight. Stock compound plates were prepared in advance which contained dimethyl sulfoxide (DMSO) alone and a 9-point half-log decreasing dose range of the compound of Example 22 in DMSO. The compound plates were stored at −80° C. and each plate was only thawed once and used. On day 0, the main assay plates received compound or DMSO via a sonic delivery system (ECHO). The highest final concentration of compound of the dose range in the culture plates was 10 uM. These plates were cultured at 37° C. for 3 days. […] On day 3, the compound treated plates were stained and fixed to measure proliferation, apoptosis, and mitotic index using an InCell1000 analyser. A nuclear stain was used to identify cells in the wells. By counting the number of nuclei, the proliferation index of compound treated groups were calculated as a percentage relative to the DMSO control, which was set to 100%. The IC50 values were calculated using model 205 in ExcelFit.

In the case of `COc1cc(N2CCC(N3CCCCC3)CC2)ccc1Nc1nccc(-c2c(-c3cccc(C(=O)Nc4c(F)cccc4F)c3)nc3ccccn23)n1` [Example 22, 3-[3-(2-{[4-(1,4′-bipiperidin-1′-yl)-2-(methyloxy)phenyl]amino}-4-pyrimidinyl)imidazo[1,2-a]pyridin-2-yl]-N-(2,6-difluorophenyl)benzamide], the IC50 (NCI-H292, NCI-H292, Lung) is reported as 1 to 5 µM, the IC50 (NCI-H295R, Cervix) is reported as over 5 µM and the IC50 (NCI-H358, NCI-H358, Lung) is reported as under 1 µM. For the same compound, the IC50 (NCI-H460, NCI-H460, Lung) was 1 to 5 µM, the IC50 (NCI-H520, NCI-H520, Lung) was 1 to 5 µM and the IC50 (NCI-H522, NCI-H522, Lung) was 1 to 5 µM. It also gave an IC50 (NCI-H526, NCI-H526, Lung) of under 1 µM, an IC50 (NCI-H596, NCI-H596, Lung) of over 5 µM and an IC50 (NCI-H630, NCI-H630, Rectum) of under 1 µM. It also gave an IC50 (NCI-H661, NCI-H661, Lung) of 1 to 5 µM, an IC50 (NCI-H716, NCI-H716, Colon) of under 1 µM and an IC50 (NCI-H727, NCI-H727, Lung) of 1 to 5 µM. It also gave an IC50 (NCI-H747, NCI-H747, Colon) of 1 to 5 µM, an IC50 (NCI-H1395, NCI-H1395, Lung) of over 5 µM and an IC50 (NCI-H2087, NCI-H2087, Lung) of over 5 µM. It also gave an IC50 (NCI-N87, NCI-N87, Stomach) of under 1 µM, an IC50 (NCI/ADR-RES, Breast) of 1 to 5 µM and an IC50 (OV-90, OV-90, Ovary) of over 5 µM. For the same compound, the IC50 (OVCAR-3, OVCAR-3, Ovary) was over 5 µM, the IC50 (OVCAR-4, OVCAR-4, Ovary) was 1 to 5 µM and the IC50 (OVCAR-5, OVCAR-5, Ovary) was under 1 µM. The IC50 (OVCAR-8, OVCAR-8, Ovary) was 1 to 5 µM, the IC50 (RL95-2, RL95-2, Uterus) was 1 to 5 µM and the IC50 (RPMI-2650, RPMI2650, H&N) was 1 to 5 µM. For the same compound, the IC50 (RPMI-6666, RPMI6666, lymphoma - Hodgkin) was 1 to 5 µM, the IC50 (RPMI-8226, RPMI8226, Myeloma) was under 1 µM and the IC50 (RWPE-1, RWPE-1, Prostate) was under 1 µM. For the same compound, the IC50 (RXF 393, RXF393, Kidney) was 1 to 5 µM, the IC50 (Raji, lymphoma - Burkitt) was 1 to 5 µM and the IC50 (SAOS-2, SaOS-2, Sarcoma) was under 1 µM. It also gave an IC50 (SCC-4, SCC-4, H&N) of 1 to 5 µM, an IC50 (SCC-9, SCC-9, H&N) of over 5 µM and an IC50 (SCC-15, SCC-15, H&N) of over 5 µM. It also gave an IC50 (SCC-25, SCC-25, H&N) of under 1 µM, an IC50 (SCaBER, Bladder) of 1 to 5 µM and an IC50 (SF-268, SF-268, glioma) of 1 to 5 µM. For the same compound, the IC50 (SF-295, SF-295, glioma) was over 5 µM, the IC50 (SF-539, SF-539, glioma) was over 5 µM and the IC50 (SHP77, SHP-77, Lung) was 1 to 5 µM. It also gave an IC50 (SJRH30, SJRH30, Sarcoma - rhabdomyosarcoma) of under 1 µM, an IC50 (SK-BR-3, SK-BR-3, Breast) of 1 to 5 µM and an IC50 (SK-LMS-1, SK-LM-S1, Sarcoma) of 1 to 5 µM. The IC50 (SK-MEL3, SK-MEL-3, Skin) was over 5 µM, the IC50 (SK-MEL-1, SK-MEL-1, Skin) was over 5 µM and the IC50 (SK-MEL-28, SK-MEL-28, Skin) was 1 to 5 µM. The IC50 (SK-N-AS, neuroblastoma) was 1 to 5 µM, the IC50 (SK-N-DZ, neuroblastoma) was 1 to 5 µM and the IC50 (SK-N-FI, neuroblastoma) was under 1 µM. It also gave an IC50 (SK-NEP-1, SK-NEP-1, Kidney) of over 5 µM, an IC50 (SK-OV-3, SK-OV-3, Ovary) of over 5 µM and an IC50 (SK-UT-1, SK-UT-1, Sarcoma) of 1 to 5 µM. It also gave an IC50 (SN12C, Kidney) of 1 to 5 µM, an IC50 (SNB-19, SNB-19, glioma) of over 5 µM and an IC50 (SNB-75, SNB-75, glioma) of over 5 µM. It also gave an IC50 (SNU1, SNU-1, Stomach) of over 5 µM, an IC50 (SNU-5, SNU-5, Stomach) of over 5 µM and an IC50 (SNU-16, SNU-16, Stomach) of over 5 µM. It also gave an IC50 (SNU-182, SNU-182, Liver) of 1 to 5 µM, an IC50 (SNU-387, SNU-387, Liver) of 1 to 5 µM and an IC50 (SNU-398, SNU-398, Liver) of 1 to 5 µM. The IC50 (SNU-423, SNU-423, Liver) was 1 to 5 µM, the IC50 (SNU-449, SNU-449, Liver) was over 5 µM and the IC50 (SNU-475, SNU-475, Liver) was 1 to 5 µM. It also gave an IC50 (ST486, ST486, lymphoma - Burkitt) of 1 to 5 µM.
